Counter-ions that a name gives are not always drawn.

This assay relates to influx of neutrophils to the lung in LPS-challenged rats. The assay is described as follows: Rat LPS neutrophilia model. Type of assay: in vivo. As to conditions: intratracheal, LPS aerosol 100 ug/ml, in at least one of the range of conditions tested, significance p<0.05. As for the experimental part:
Rat LPS Neutrophilia Model
The effect of compounds on the influx of neutrophils to the lung in LPS-challenged rats is evaluated as follows. The test compound is suspended in one of the following solutions: 0.5% tween 80/PBS, 0.5% tween 80/saline, 10% EtOH/saline (with pH adjusted to 2.0, or 8.0 with HCl, or unadjusted), Saline (pH 2.0, 6.5 or 8.0, 0.5% Tragacanth, 1% DMSO/20% Encapsin/Saline, or acidified 5% Tragacanth. The suspension process may be aided by the use of a glass homogenizer. For intratracheal administration, the animals are anesthetized with inhaled isoflurane and placed in a supine position, the trachea is intubated with a steel gavage needle (1.5 inch, 22 gauge, small ball) or a Penn-Century Microsprayer Aerosolizer (model IA-1B) and 200 ul of dosing solution is delivered. The animals are visually monitored during the recovery process, which typically occurs within two minutes. It is noted that the test compounds may be alternatively administered via the microsprayer in a dry powder blend with a suitable excipient, such as lactose.
Rats treated with compound or vehicle (15 min-24 hours pretreatment) are exposed to an LPS aerosol (100 ug/ml) for 15 min. Four hours later the rats are euthanized with pentobarbital (100 mg/kg, i.p.) and the airways are lavaged with 5 washes of 5 ml of phosphate buffered saline. The harvested cells are stained (Diffquick) and counted to determine total and differential cell data. […] Inhibition of neutrophil levels relative to no compound controls is calculated based on the differential counts.
The data is obtained as % inhibition using a particular concentration and pretreat time.
For the compound `Cc1ccc(C(=O)NC2CC2)cc1-c1nc(NCCN(C)C)nc2c1ccc(=O)n2-c1c(F)cccc1F` [Example 25], the “inhibition of neutrophilia (neutrophil levels in airway lavage relative to no compound controls)” value is reported as “statistically nonsignificant inhibition of neutrophilia”.

On to `CCN(CC)CCCNc1nc(-c2cc(C(=O)NCC3CCCC3)ccc2C)c2ccc(=O)n(-c3c(F)cccc3F)c2n1` [Example 132, N-(cyclopentylmethyl)-3-[2-{[3-(diethylamino)propyl]amino}-8-(2,6-difluorophenyl)-7-oxo-7,8-dihydropyrido[2,3-d]pyrimidin-4-yl]-4-methylbenzamidetrifluoroacetate], for which the “inhibition of neutrophilia (neutrophil levels in airway lavage relative to no compound controls)” value is listed as “statistically nonsignificant inhibition of neutrophilia”.

As to `Cc1ccc(C(=O)Nc2nccs2)cc1-c1nc(N(C)CCCN(C)C)nc2c1ccc(=O)n2-c1c(F)cccc1F` [Example 107, 3-{8-(2,6-difluorophenyl)-2-[[3-(dimethylamino)propyl](methyl)amino]-7-oxo-7,8-dihydropyrido[2,3-d]pyrimidin-4-yl}-4-methyl-N-1,3-thiazol-2-ylbenzamide], the “inhibition of neutrophilia (neutrophil levels in airway lavage relative to no compound controls)” value was “statistically significant inhibition of neutrophilia”.

As to `Cc1ccc(C(=O)NC2CCCC2)cc1-c1nc(NCc2ncc[nH]2)nc2c1ccc(=O)n2-c1c(F)cccc1F` [Example 76, N-cyclopentyl-3-{8-(2,6-difluorophenyl)-2-[(1H-imidazol-2-ylmethyl)amino]-7-oxo-7,8-dihydropyrido[2,3-d]pyrimidin-4-yl}-4-methylbenzamide], the “inhibition of neutrophilia (neutrophil levels in airway lavage relative to no compound controls)” value is given as “statistically nonsignificant inhibition of neutrophilia”.

For `CNCCNc1nc(-c2cc(C(=O)Nc3nccs3)ccc2C)c2ccc(=O)n(-c3c(F)cccc3F)c2n1` [Example 61, 3-(8-(2,6-difluorophenyl)-2-{[2-(methylamino)ethyl]amino}-7-oxo-7,8-dihydropyrido[2,3-d]pyrimidin-4-yl)-4-methyl-N-1,3-thiazol-2-ylbenzamide], the “inhibition of neutrophilia (neutrophil levels in airway lavage relative to no compound controls)” value is “statistically significant inhibition of neutrophilia”.

As for `Cc1ccc(NC(=O)c2ccsc2)cc1-c1nc(N2CCC(N)CC2)nc2c1ccc(=O)n2-c1c(F)cccc1F` [Example 32, N-{3-[2-(4-amino-1-piperidinyl)-8-(2,6-difluorophenyl)-7-oxo-7,8-dihydropyrido[2,3-d]pyrimidin-4-yl]-4-methylphenyl}-3-thiophenecarboxamide], the “inhibition of neutrophilia (neutrophil levels in airway lavage relative to no compound controls)” value is given as “statistically nonsignificant inhibition of neutrophilia”.

`CCCNC(=O)c1ccc(C)c(-c2nc(NCCNC)nc3c2ccc(=O)n3-c2c(F)cccc2F)c1` [56(d), 3-(8-(2,6-difluorophenyl)-2-{[2-(methylamino)ethyl]amino}-7-oxo-7,8-dihydropyrido[2,3-d]pyrimidin-4-yl)-4-methyl-N-propylbenzamide]: the “inhibition of neutrophilia (neutrophil levels in airway lavage relative to no compound controls)” value is listed as “statistically significant inhibition of neutrophilia”.

As to `Cc1ccc(C(=O)NC(C)C)cc1-c1nc(N2CCC(N3CCC(C)CC3)CC2)nc2c1ccc(=O)n2-c1c(F)cccc1F` [163(c), 3-[8-(2,6-difluorophenyl)-2-(4-methyl-1,4′-bipiperidin-1′-yl)-7-oxo-7,8-dihydropyrido[2,3-d]pyrimidin-4-yl]-4-methyl-N-(1-methylethyl)benzamide], the “inhibition of neutrophilia (neutrophil levels in airway lavage relative to no compound controls)” value was “statistically nonsignificant inhibition of neutrophilia”.

For the compound `Cc1ccc(C(=O)Nc2nccs2)cc1-c1nc(N2CCC(N)CC2)nc2c1ccc(=O)n2-c1c(F)cccc1F` [Example 73, 3-[2-(4-amino-1-piperidinyl)-8-(2,6-difluorophenyl)-7-oxo-7,8-dihydropyrido[2,3-d]pyrimidin-4-yl]-4-methyl-N-1,3-thiazol-2-ylbenzamide], the “inhibition of neutrophilia (neutrophil levels in airway lavage relative to no compound controls)” value is “statistically significant inhibition of neutrophilia”.

Turning to `CNCCNc1nc(-c2cc(C(=O)NC3CCCC3)ccc2C)c2ccc(=O)n(-c3c(F)cccc3F)c2n1` [Example 58, N-cyclopentyl-3-(8-(2,6-difluorophenyl)-2-{[2-(methylamino)ethyl]amino}-7-oxo-7,8-dihydropyrido[2,3-d]pyrimidin-4-yl)-4-methylbenzamide], the “inhibition of neutrophilia (neutrophil levels in airway lavage relative to no compound controls)” value was “statistically significant inhibition of neutrophilia”.

With `Cc1ccc(C(=O)NCCc2ccccc2)cc1-c1nc(NC2CC(C)(C)NC(C)(C)C2)nc2c1ccc(=O)n2-c1c(F)cccc1F` [Example 28, 3-{8-(2,6-difluorophenyl)-7-oxo-2-[(2,2,6,6-tetramethyl-4-piperidinyl)amino]-7,8-dihydropyrido[2,3-d]pyrimidin-4-yl}-4-methyl-N-(2-phenylethyl)benzamide], the “inhibition of neutrophilia (neutrophil levels in airway lavage relative to no compound controls)” value is on record as “statistically nonsignificant inhibition of neutrophilia”.

On to `CCCCNC(=O)c1ccc(C)c(-c2nc(N3CCC(N4CCC(C)CC4)CC3)nc3c2ccc(=O)n3-c2c(F)cccc2F)c1` [Example 167, N-butyl-3-[8-(2,6-difluorophenyl)-2-(4-methyl-1,4′-bipiperidin-1′-yl)-7-oxo-7,8-dihydropyrido[2,3-d]pyrimidin-4-yl]-4-methylbenzamide], for which the “inhibition of neutrophilia (neutrophil levels in airway lavage relative to no compound controls)” value is “statistically significant inhibition of neutrophilia”.

`Cc1ccc(C(=O)Nc2nccs2)cc1-c1nc(NCCN(C)C)nc2c1ccc(=O)n2-c1c(F)cccc1F` [Example 109, 3-(8-(2,6-difluorophenyl)-2-{[2-(dimethylamino)ethyl]amino}-7-oxo-7,8-dihydropyrido[2,3-d]pyrimidin-4-yl)-4-methyl-N-1,3-thiazol-2-ylbenzamide]: the “inhibition of neutrophilia (neutrophil levels in airway lavage relative to no compound controls)” value is “statistically significant inhibition of neutrophilia”.

`CCN(CC)CCCNc1nc(-c2cc(C(=O)NC3CC3)cc(F)c2C)c2ccc(=O)n(-c3c(F)cccc3F)c2n1` [Example 185, N-cyclopropyl-3-[2-{[3-(diethylamino)propyl]amino}-8-(2,6-difluorophenyl)-7-oxo-7,8-dihydropyrido[2,3-d]pyrimidin-4-yl]-5-fluoro-4-methylbenzamide]: the “inhibition of neutrophilia (neutrophil levels in airway lavage relative to no compound controls)” value is given as “statistically nonsignificant inhibition of neutrophilia”.

Turning to `CCN(CC)CCCNc1nc(-c2cc(C(=O)NCC3CC3)ccc2C)c2ccc(=O)n(-c3c(F)cccc3F)c2n1` [Example 138, N-(cyclopropylmethyl)-3-[2-{[3-(diethylamino)propyl]amino}-8-(2,6-difluorophenyl)-7-oxo-7,8-dihydropyrido[2,3-d]pyrimidin-4-yl]-4-methylbenzamide trifluoroacetate], the “inhibition of neutrophilia (neutrophil levels in airway lavage relative to no compound controls)” value is recorded as “statistically nonsignificant inhibition of neutrophilia”.

As for `Cc1ccc(C(=O)Nc2nccs2)cc1-c1nc(NCCNC(C)C)nc2c1ccc(=O)n2-c1c(F)cccc1F` [Example 103, 3-[8-(2,6-difluorophenyl)-2-({2-[(1-methylethyl)amino]ethyl}amino)-7-oxo-7,8-dihydropyrido[2,3-d]pyrimidin-4-yl]-4-methyl-N-1,3-thiazol-2-ylbenzamide], the “inhibition of neutrophilia (neutrophil levels in airway lavage relative to no compound controls)” value is given as “statistically significant inhibition of neutrophilia”.
